From patent publication US8324390B2, “Tetrazole-substituted anthranilamides as pesticides” (Bayer CropScience AG, priority 2008, dated 2012)
Like-named read-outs stand apart in the source and are kept apart here.

Tests used:
[1] = log P determination by HPLC (EEC Directive 79/831 Annex V.A8); format: physicochemical
Protocol: The measurements were carried out using an Agilent 1100 LC system with a 50*4.6 Zorbax Eclipse C18 1.8 μm column (oven temperature 55° C., flow rate 2.0 ml/min).
The following mobile phases were used:
Mobile phase A: acetonitrile+1000 μl of formic acid/l
Mobile phase B: Millipore water+900 μl of formic acid/l

[2] = test system: caterpillars of the armyworm (Spodoptera frugiperda); assay: Spodoptera frugiperda test (SPODFR spray treatment); format: in vivo; conditions: Spodoptera frugiperda, foliar, read-out: effect in % (caterpillars killed)
Source text: (§1) Solvent: 78.0 parts by weight of acetone

[3] = test system: green peach aphid (Myzus persicae); assay: Myzus test (MYZUPE spray treatment); format: in vivo; conditions: Myzus persicae, foliar, read-out: effect in % (aphids killed)
Source text: Solvent: 78 parts by weight of acetone
as §1

[4] = test system: larvae of the mustard beetle (Phaedon cochleariae); assay: Phaedon test (PHAECO spray treatment); conditions: Phaedon cochleariae, in Brassica rapa, foliar, read-out: effect in % (beetle larvae killed)
[5] = reversed-phase HPLC, Zorbax Eclipse C18 column, determined by HPLC according to EEC Directive 79/831 Annex V.A8, read-out: log P
[6] = application rate 100 g/ha, maize leaf discs
[7] = application rate 100 g/ha, Chinese cabbage leaf discs
[8] = reversed-phase HPLC, Zorbax Eclipse C18 column, by HPLC according to EEC Directive 79/831 Annex V.A8, read-out: log P

SMILES	chromatographic logP [1, 5]	chromatographic logP [1, 8]	pest or weed control at 100 g/ha [2, 6] [%]	pest or weed control at 100 g/ha [3, 7] [%]	pest or weed control at 100 g/ha [4] [%]	chromatographic logP ([1]; log P)	pest or weed control at 100 g/ha ([2]; in Zea mays) [%]	pest or weed control at 100 g/ha ([3]; in Brassica rapa) [%]
Cc1cc(C#N)cc(C(=O)NC(C)C)c1NC(=O)c1cc(Cn2nnc(C(F)(F)C(F)(F)F)n2)nn1-c1ncccc1Br [Example 423]	3.46	–	≥ 80	≥ 80	≥ 80	–	–	–
CSC[C@H](C)NC(=O)c1cc(C#N)cc(C)c1NC(=O)c1cc(Cn2nnc(C(F)(C(F)(F)F)C(F)(F)F)n2)nn1-c1ncccc1Cl [Example 376]	–	3.96	≥ 80	≥ 80	≥ 80	–	–	–
Cc1cc(Cl)cc(C(N)=O)c1NC(=O)c1cc(Cn2nnc(C(F)(F)F)n2)nn1-c1ncccc1Br [Example 330]	–	2.76	≥ 80	≥ 80	≥ 80	–	–	–
Cc1cc(Br)cc(C(=O)NC2CC2)c1NC(=O)c1cc(Cn2nnnc2C(F)(F)F)nn1-c1ncccc1Cl [Example 181]	–	–	–	–	≥ 80	2.99	≥ 80	≥ 80
CNC(=O)c1cc(F)cc(C)c1NC(=O)c1cc(Cn2nnc(C(F)(F)F)n2)nn1-c1ncccc1Cl [Example 29]	–	–	–	–	≥ 80	2.66	≥ 80	≥ 80
COCC(C)NC(=O)c1cc(C#N)cc(C)c1NC(=O)c1cc(Cn2nnc(C(F)(F)F)n2)nn1-c1ncccc1Cl (centres unmarked) [Example 98]	–	–	–	–	≥ 80	2.95	≥ 80	≥ 80
COC(C)(C)CNC(=O)c1cc(C#N)cc(C)c1NC(=O)c1cc(Cn2nnc(C(F)(F)F)n2)nn1-c1ncccc1Cl [Example 95]	–	–	–	–	≥ 80	3.12	≥ 80	≥ 80
CSC[C@H](C)NC(=O)c1cc(Br)cc(C)c1NC(=O)c1cc(Cn2nnc(C(F)(F)F)n2)nn1-c1ncccc1Cl [Example 42]	–	–	–	–	≥ 80	3.77	≥ 80	≥ 80
Cc1cc(I)cc(C(N)=O)c1NC(=O)c1cc(Cn2nnc(C(F)F)n2)nn1-c1ncccc1Cl [Example 272]	–	–	–	–	≥ 80	2.53	≥ 80	≥ 80
CNC(=O)c1cc(Br)cc(C)c1NC(=O)c1cc(Cn2nnc(C(F)F)n2)nn1-c1ncccc1Cl [Example 296]	–	–	–	–	≥ 80	2.61	≥ 80	≥ 80
Cc1cc(C#N)cc(C(=O)NC(C)(C)C)c1NC(=O)c1cc(Cn2nnc(C(F)(F)F)n2)nn1-c1ccccc1 [Example 428]	3.72	–	≥ 80	≥ 80	≥ 80	–	–	–

Further lines, with some results ahead:

chromatographic logP [1, 5]	chromatographic logP [1, 8]	SMILES	pest or weed control at 100 g/ha [2, 6] [%]	pest or weed control at 100 g/ha [3, 7] [%]	pest or weed control at 100 g/ha [4] [%]	chromatographic logP ([1]; log P)	pest or weed control at 100 g/ha ([2]; in Zea mays) [%]	pest or weed control at 100 g/ha ([3]; in Brassica rapa) [%]
2.28	–	Cc1cc(C#N)cc(C(N)=O)c1NC(=O)c1cc(Cn2nnnc2C(F)(F)F)nn1-c1ncccc1Br [Example 479]	≥ 80	≥ 80	≥ 80	–	–	–
3.65	–	Cc1cc(Br)cc(C(=O)NC(C)(C)C)c1NC(=O)c1cc(Cn2nnnc2C(F)(F)F)nn1-c1ncccc1Br [Example 507]	≥ 80	≥ 80	≥ 80	–	–	–
3.61	–	Cc1cc(C#N)cc(C(=O)NCC2CC2)c1NC(=O)c1cc(Cn2nnc(C(F)(F)F)n2)nn1-c1ccccc1Cl [Example 440]	≥ 80	≥ 80	≥ 80	–	–	–
3.23	–	CCNC(=O)c1cc(C#N)cc(C)c1NC(=O)c1cc(Cn2nnc(C(F)(F)C(F)(F)F)n2)nn1-c1ncccc1Br [Example 426]	≥ 80	≥ 80	≥ 80	–	–	–
–	3.48	CNC(=O)c1cc(C#N)cc(C)c1NC(=O)c1cc(Cn2nnc(C(F)(F)F)n2)nn1-c1cc(Cl)ccc1Cl [Example 317]	≥ 80	≥ 80	≥ 80	–	–	–
3.81	–	CCC(C)NC(=O)c1cc(C#N)cc(C)c1NC(=O)c1cc(Cn2nnc(C(F)(F)F)n2)nn1-c1ccccc1Cl (centres unmarked) [Example 530]	≥ 80	≥ 80	≥ 80	–	–	–
